The values that follow come from ChEMBL document CHEMBL3396977, “Design, synthesis and docking study of novel tetracyclic oxindole derivatives as α-glucosidase inhibitors” (Bioorg Med Chem Lett, 2015).

Active and inactive are the calls of the source. The calls are words filed in the database; no cut-off is given here. Some results are limits rather than exact numbers.

Sequence of Alpha-glucosidase MAL12 (P53341 whole entry): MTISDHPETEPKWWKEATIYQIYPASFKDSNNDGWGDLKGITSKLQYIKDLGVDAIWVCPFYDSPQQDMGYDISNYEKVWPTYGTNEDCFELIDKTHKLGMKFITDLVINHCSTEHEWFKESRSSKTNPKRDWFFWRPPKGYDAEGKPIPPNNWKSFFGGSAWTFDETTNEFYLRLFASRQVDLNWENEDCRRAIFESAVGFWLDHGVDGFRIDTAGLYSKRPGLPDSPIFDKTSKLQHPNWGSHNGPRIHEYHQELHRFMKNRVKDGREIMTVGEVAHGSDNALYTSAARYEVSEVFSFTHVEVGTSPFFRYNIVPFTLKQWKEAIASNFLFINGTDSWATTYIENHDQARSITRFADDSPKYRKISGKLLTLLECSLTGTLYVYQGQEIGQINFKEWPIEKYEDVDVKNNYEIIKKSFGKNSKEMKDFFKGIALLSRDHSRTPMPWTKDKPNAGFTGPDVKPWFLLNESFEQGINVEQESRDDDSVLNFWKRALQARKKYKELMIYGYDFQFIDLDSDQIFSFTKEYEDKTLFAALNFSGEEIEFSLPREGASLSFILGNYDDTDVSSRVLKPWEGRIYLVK

One experiment has as its target Alpha-glucosidase MAL12 (Saccharomyces cerevisiae S288c, UniProt P53341). Put plainly: Inhibition of bakers yeast alpha-glucosidase using p-nitrophenyl-alpha-D-glucopyranoside as substrate after 30 mins by spectrophotometry.
On to `COC(=O)CC1c2c(ccc3c2C(=O)C(=O)N3C)-c2ccccc2N1S(=O)(=O)c1ccc(F)cc1` (configuration not stated), for which the midpoint of inhibition, the IC50, lay at 42.9 µM.

Consider `COC(=O)CC1Nc2ccccc2-c2ccc3c(c21)C1(OCC(C)(C)CO1)C(=O)N3C` (configuration not stated), for which the IC50 (in general, the midpoint of a concentration-inhibition curve) is over 300 µM.

For `COC(=O)CC1c2c(ccc3c2C(=O)C(=O)N3C)-c2ccccc2N1C(=O)c1ccc(OC)cc1` (configuration not stated), 111 µM corresponded to half-maximal inhibition (IC50).

`COC(=O)CC1Nc2ccccc2-c2ccc3c(c21)C(=O)C(=O)N3Cc1ccc(OC)cc1` (configuration not stated) showed an IC50 of 45.3 µM.

Consider `COC(=O)CC1c2c(ccc3c2C(=O)C(=O)N3C)-c2ccccc2N1S(=O)(=O)c1ccccc1` (configuration not stated), for which the IC50 came out at 77.1 µM.

For the compound `O=C(O)CC1Oc2ccccc2-c2ccc3c(c21)C(=O)C(=O)N3Cc1ccc(C(F)(F)F)cc1` (configuration not stated), the IC50 came out at 4.8 µM.

`COC(=O)CC1Oc2ccccc2-c2cc(C)c3c(c21)C(=O)C(=O)N3Cc1ccccc1` (configuration not stated): the IC50 amounted to 39.3 µM.

`COC(=O)CC1Oc2ccccc2-c2ccc3c(c21)C(=O)C(=O)N3C` (configuration not stated) yielded an IC50 of 105 µM.

The compound `COC(=O)CC1Oc2ccccc2-c2ccc3c(c21)C(=O)C(=O)N3Cc1ccc(C(F)(F)F)cc1` (configuration not stated) yielded an IC50 of 15.7 µM.

In the case of `COC(=O)CC1Nc2ccccc2-c2ccc3c(c21)C(=O)C(=O)N3C` (configuration not stated), the IC50 was found to be 287 µM.

As for `COC(=O)CC1Oc2ccccc2-c2ccc3c(c21)C(=O)C(=O)N3Cc1ccc(OC)cc1` (configuration not stated), the IC50 was determined as 32.3 µM.

With `COC(=O)CC1Nc2ccccc2-c2cc(C)c3c(c21)C(=O)C(=O)N3C` (configuration not stated), the IC50 is 117 µM.

On to `COC(=O)CC1Oc2ccccc2-c2ccc3c(c21)C(=O)C(=O)N3Cc1ccccc1` (configuration not stated), for which the IC50 worked out at 12.1 µM.

In turn, `COC(=O)CC1c2c(ccc3c2C(=O)C(=O)N3C)-c2ccccc2N1C(C)=O` (configuration not stated) returned an IC50 of over 300 µM.

Turning to `O=C(O)CC1Oc2ccccc2-c2ccc3c(c21)C(=O)C(=O)N3Cc1ccccc1` (configuration not stated), the IC50 was 16 µM.

For `COC(=O)CC1c2c(ccc3c2C(=O)C(=O)N3C)-c2ccccc2N1C(=O)c1ccc(Cl)cc1` (configuration not stated), 75.9 µM corresponded to half-maximal inhibition (IC50).

`CN1C(=O)C(=O)c2c1ccc1c2C(CC(=O)O)Nc2ccccc2-1` (configuration not stated) returned an IC50 of 187 µM.

With `COC(=O)CC1c2c(ccc3c2C(=O)C(=O)N3C)-c2ccccc2N1C(=O)c1ccccc1` (configuration not stated), the IC50 stood at 150 µM.

For the compound `CN1C(=O)C(=O)c2c1ccc1c2C(CC(=O)O)Oc2ccccc2-1` (configuration not stated), the midpoint of inhibition, the IC50, lay at 29 µM.

The compound `COC(=O)CC1Oc2ccccc2-c2cc(C)c3c(c21)C(=O)C(=O)N3C` (configuration not stated) had an IC50 of 34.8 µM.

Another experiment deals with Oligo-1,6-glucosidase IMA1 (Saccharomyces cerevisiae S288c) (UniProt P53051). The experiment can be described thus: Competitive inhibition of bakers yeast alpha-glucosidase using p-nitrophenyl-alpha-D-glucopyranoside as substrate at 0.5 to 5 uM after 30 mins by Lineweaver-Burk plot analysis.
Sequence of Oligo-1,6-glucosidase IMA1 (Saccharomyces cerevisiae S288c) (P53051 whole entry): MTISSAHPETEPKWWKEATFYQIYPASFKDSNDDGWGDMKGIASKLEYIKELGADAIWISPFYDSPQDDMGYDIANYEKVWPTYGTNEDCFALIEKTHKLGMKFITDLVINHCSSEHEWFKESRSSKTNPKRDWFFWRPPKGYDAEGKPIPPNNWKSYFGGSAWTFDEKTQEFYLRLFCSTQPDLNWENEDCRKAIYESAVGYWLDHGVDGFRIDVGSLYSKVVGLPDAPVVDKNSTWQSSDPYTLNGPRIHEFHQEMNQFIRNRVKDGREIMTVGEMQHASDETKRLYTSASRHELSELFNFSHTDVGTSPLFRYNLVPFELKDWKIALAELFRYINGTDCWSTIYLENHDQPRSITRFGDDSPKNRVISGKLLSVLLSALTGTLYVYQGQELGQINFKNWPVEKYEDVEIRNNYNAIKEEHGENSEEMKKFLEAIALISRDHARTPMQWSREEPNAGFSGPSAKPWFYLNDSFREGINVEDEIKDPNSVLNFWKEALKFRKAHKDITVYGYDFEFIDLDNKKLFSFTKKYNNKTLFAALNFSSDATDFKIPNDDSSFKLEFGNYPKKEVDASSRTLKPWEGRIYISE
For `O=C(O)CC1Oc2ccccc2-c2ccc3c(c21)C(=O)C(=O)N3Cc1ccc(C(F)(F)F)cc1` (configuration not stated), the inhibition result is “Active”.

A further experiment shares this target. The experiment can be described thus: Ratio of acarbose IC50 to compound IC50 for bakers yeast alpha-glucosidase using p-nitrophenyl-alpha-D-glucopyranoside as substrate after 30 mins by spectrophotometry.
In the case of `O=C(O)CC1Oc2ccccc2-c2ccc3c(c21)C(=O)C(=O)N3Cc1ccc(C(F)(F)F)cc1` (configuration not stated), the Ratio IC50 came out at 20.
